According to PubChem BioAssay AID1963831 (Molecular Pharmacology Branch, DTP, NCI, 2024):

Test system: 889142-216-R-J1-PDC complex spheroid viability
Experiment: Anticancer human tumor 889142-216-R-J1-PDC patient-derived bladder carcinoma cell line growth inhibition [POLQ]
Conditions: for IC50: curve of first compound; for viability, T/C: stronger effect = lower value
Method in brief: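 Three-cell-type spheroids modelling solid tumor plus stroma served as the readout system; POL inhibitors were tested individually and in combination, concentration ranges set by clinical Cmax where known.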

[1] = second compound 0.0316 µM, first compound 0.0316 µM
[2] = second compound 0.0316 µM, first compound 0.1 µM
[3] = second compound 0.0316 µM, first compound 0.316 µM
[4] = second compound 0.0316 µM, first compound 1 µM
[5] = second compound 0.0316 µM, first compound 3.16 µM
[6] = second compound 0.0316 µM, first compound 10 µM
[7] = second compound 0.1 µM, first compound 0.0316 µM
[8] = second compound 0.1 µM, first compound 0.1 µM
[9] = second compound 0.1 µM, first compound 0.316 µM
[10] = second compound 0.1 µM, first compound 1 µM
[11] = second compound 0.1 µM, first compound 3.16 µM
[12] = second compound 0.1 µM, first compound 10 µM
[13] = second compound 0.316 µM, first compound 0.0316 µM
[14] = second compound 0.316 µM, first compound 0.1 µM
[15] = second compound 0.316 µM, first compound 0.316 µM
[16] = second compound 0.316 µM, first compound 1 µM
[17] = second compound 0.316 µM, first compound 3.16 µM
[18] = second compound 0.316 µM, first compound 10 µM
[19] = second compound 1 µM, first compound 0.0316 µM
[20] = second compound 1 µM, first compound 0.1 µM
[21] = second compound 1 µM, first compound 0.316 µM
[22] = second compound 1 µM, first compound 1 µM
[23] = second compound 1 µM, first compound 3.16 µM
[24] = second compound 1 µM, first compound 10 µM
[25] = second compound 3.16 µM, first compound 0.0316 µM
[26] = second compound 3.16 µM, first compound 0.1 µM
[27] = second compound 3.16 µM, first compound 0.316 µM
[28] = second compound 3.16 µM, first compound 1 µM
[29] = second compound 3.16 µM, first compound 3.16 µM
[30] = second compound 3.16 µM, first compound 10 µM
[31] = second compound 10 µM, first compound 0.0316 µM
[32] = second compound 10 µM, first compound 0.1 µM
[33] = second compound 10 µM, first compound 0.316 µM
[34] = second compound 10 µM, first compound 1 µM
[35] = second compound 10 µM, first compound 3.16 µM
[36] = second compound 10 µM, first compound 10 µM
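Also: spheroids exposed to compounds for seven days.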
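For viability, T/C in this document: 100% = DMSO vehicle control viability.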

Work on CC1COCCN1c1cc(C2(O)CC3CCC(C2)O3)c2cnn(-c3ccn[nH]3)c2n1 (stereo not drawn) + Cc1cccc(N(C)C(=O)C2C(O)CCN2c2nc(C)cc(C(F)(F)F)c2C#N)c1 yielded an IC50 (second compound 0.0316 µM) of 133 nM, an IC50 (second compound 0.1 µM) of 71 nM and an IC50 (second compound 0.316 µM) of 133 nM. It also gave an IC50 (second compound 1 µM) of 102 nM, an IC50 (second compound 3.16 µM) of 98.8 nM and an IC50 (second compound 10 µM) of 56.5 nM. The viability, T/C [1] was 66.5%, the viability, T/C [2] was 48.2% and the viability, T/C [3] was 42.3%. It also gave a viability, T/C [4] of 34.2%, a viability, T/C [5] of 26.1% and a viability, T/C [6] of 14.6%. The viability, T/C [7] was 56.7%, the viability, T/C [8] was 48.1% and the viability, T/C [9] was 36.1%. It also gave a viability, T/C [10] of 29%, a viability, T/C [11] of 23.8% and a viability, T/C [12] of 15.2%. It also gave a viability, T/C [13] of 66.8%, a viability, T/C [14] of 49.5% and a viability, T/C [15] of 39.8%. The viability, T/C [16] was 34.5%, the viability, T/C [17] was 25.9% and the viability, T/C [18] was 12.4%. The viability, T/C [19] was 62.7%, the viability, T/C [20] was 48.4% and the viability, T/C [21] was 38.9%. For the same molecule, the viability, T/C [22] was 31.2%, the viability, T/C [23] was 22.6% and the viability, T/C [24] was 12.4%. The viability, T/C [25] was 61.5%, the viability, T/C [26] was 47.9% and the viability, T/C [27] was 40%. For the same molecule, the viability, T/C [28] was 30.6%, the viability, T/C [29] was 26.4% and the viability, T/C [30] was 13.7%. It also gave a viability, T/C [31] of 55.9%, a viability, T/C [32] of 43.6% and a viability, T/C [33] of 37.6%. For the same molecule, the viability, T/C [34] was 29.5%, the viability, T/C [35] was 29.9% and the viability, T/C [36] was 13.3%.
With C=CC(=O)N1CCN(c2nc(=O)n(-c3c(C)ccnc3C(C)C)c3nc(-c4c(O)cccc4F)c(F)cc23)C(C)C1 (stereo not drawn) + Nc1ccc(C#CCN(C(=O)Cc2ncc(C(F)(F)F)cc2C(F)(F)F)c2ccc(F)cc2)nn1 the IC50 (second compound 0.0316 µM) was > 10000 nM, the IC50 (second compound 0.1 µM) was > 10000 nM and the IC50 (second compound 0.316 µM) was > 10000 nM. For the same molecule, the IC50 (second compound 1 µM) was > 10000 nM, the IC50 (second compound 3.16 µM) was > 10000 nM and the IC50 (second compound 10 µM) was > 10000 nM. For the same molecule, the viability, T/C [1] was 95.4%, the viability, T/C [2] was 111% and the viability, T/C [3] was 87.8%. It also gave a viability, T/C [4] of 121%, a viability, T/C [5] of 133% and a viability, T/C [6] of 93.6%. It also gave a viability, T/C [7] of 103%, a viability, T/C [8] of 89.2% and a viability, T/C [9] of 109%. For the same molecule, the viability, T/C [10] was 129%, the viability, T/C [11] was 111% and the viability, T/C [12] was 102%. For the same molecule, the viability, T/C [13] was 135%, the viability, T/C [14] was 127% and the viability, T/C [15] was 96.3%. It also gave a viability, T/C [16] of 96.5%, a viability, T/C [17] of 145% and a viability, T/C [18] of 111%. The viability, T/C [19] was 113%, the viability, T/C [20] was 86% and the viability, T/C [21] was 120%. It also gave a viability, T/C [22] of 121%, a viability, T/C [23] of 116% and a viability, T/C [24] of 100%. It also gave a viability, T/C [25] of 126%, a viability, T/C [26] of 88.3% and a viability, T/C [27] of 119%. For the same molecule, the viability, T/C [28] was 88.8%, the viability, T/C [29] was 119% and the viability, T/C [30] was 104%. It also gave a viability, T/C [31] of 99.5%, a viability, T/C [32] of 114% and a viability, T/C [33] of 121%. It also gave a viability, T/C [34] of 95.1%, a viability, T/C [35] of 126% and a viability, T/C [36] of 131%.
With C=CCn1c(=O)c2cnc(Nc3ccc(N4CCN(C)CC4)cc3)nc2n1-c1cccc(C(C)(C)O)n1 + Nc1ccc(C#CCN(C(=O)Cc2ncc(C(F)(F)F)cc2C(F)(F)F)c2ccc(F)cc2)nn1 the IC50 (second compound 0.0316 µM) was > 1000 nM, the IC50 (second compound 0.1 µM) was > 1000 nM and the IC50 (second compound 0.316 µM) was > 1000 nM. For the same molecule, the IC50 (second compound 1 µM) was > 1000 nM, the IC50 (second compound 3.16 µM) was > 1000 nM and the IC50 (second compound 10 µM) was > 1000 nM. For the same molecule, the viability, T/C (second compound 0.0316 µM, first compound 0.00316 µM) was 113%, the viability, T/C (second compound 0.0316 µM, first compound 0.01 µM) was 118% and the viability, T/C [1] was 88.4%. It also gave a viability, T/C [2] of 87.2%, a viability, T/C [3] of 74.8% and a viability, T/C [4] of 58.2%. For the same molecule, the viability, T/C (second compound 0.1 µM, first compound 0.00316 µM) was 114%, the viability, T/C (second compound 0.1 µM, first compound 0.01 µM) was 119% and the viability, T/C [7] was 108%. The viability, T/C [8] was 85.1%, the viability, T/C [9] was 64.5% and the viability, T/C [10] was 56.2%. For the same molecule, the viability, T/C (second compound 0.316 µM, first compound 0.00316 µM) was 106%, the viability, T/C (second compound 0.316 µM, first compound 0.01 µM) was 79.1% and the viability, T/C [13] was 78%. The viability, T/C [14] was 80.7%, the viability, T/C [15] was 72.5% and the viability, T/C [16] was 62.4%. For the same molecule, the viability, T/C (second compound 1 µM, first compound 0.00316 µM) was 101%, the viability, T/C (second compound 1 µM, first compound 0.01 µM) was 83.8% and the viability, T/C [19] was 99.4%. The viability, T/C [20] was 78.4%, the viability, T/C [21] was 81.1% and the viability, T/C [22] was 58.9%. The viability, T/C (second compound 3.16 µM, first compound 0.00316 µM) was 98.9%, the viability, T/C (second compound 3.16 µM, first compound 0.01 µM) was 87.4% and the viability, T/C [25] was 98.1%. The viability, T/C [26] was 90.3%, the viability, T/C [27] was 84.5% and the viability, T/C [28] was 59.1%. The viability, T/C (second compound 10 µM, first compound 0.00316 µM) was 97.4%, the viability, T/C (second compound 10 µM, first compound 0.01 µM) was 96% and the viability, T/C [31] was 107%. For the same molecule, the viability, T/C [32] was 102%, the viability, T/C [33] was 66.4% and the viability, T/C [34] was 54.6%.
Molecule CC1COCCN1c1cc(-c2ccnn2C)c2ccnc(-c3ccn[nH]3)c2n1 (stereo not drawn) + Nc1ccc(C#CCN(C(=O)Cc2ncc(C(F)(F)F)cc2C(F)(F)F)c2ccc(F)cc2)nn1 has an IC50 (second compound 0.0316 µM) of 386 nM, an IC50 (second compound 0.1 µM) of 349 nM and an IC50 (second compound 0.316 µM) of 349 nM. For the same molecule, the IC50 (second compound 1 µM) was 133 nM, the IC50 (second compound 3.16 µM) was 353 nM and the IC50 (second compound 10 µM) was 557 nM. For the same molecule, the viability, T/C [1] was 69.5%, the viability, T/C [2] was 60.1% and the viability, T/C [3] was 53.7%. It also gave a viability, T/C [4] of 41%, a viability, T/C [5] of 32.8% and a viability, T/C [6] of 32.7%. It also gave a viability, T/C [7] of 71.8%, a viability, T/C [8] of 60% and a viability, T/C [9] of 48.6%. The viability, T/C [10] was 44.5%, the viability, T/C [11] was 32.2% and the viability, T/C [12] was 24.6%. It also gave a viability, T/C [13] of 73.3%, a viability, T/C [14] of 54.6% and a viability, T/C [15] of 52.7%. For the same molecule, the viability, T/C [16] was 42.7%, the viability, T/C [17] was 36.6% and the viability, T/C [18] was 25.5%. The viability, T/C [19] was 77.7%, the viability, T/C [20] was 45.8% and the viability, T/C [21] was 47.8%. It also gave a viability, T/C [22] of 39.3%, a viability, T/C [23] of 38.2% and a viability, T/C [24] of 27.3%. For the same molecule, the viability, T/C [25] was 62.9%, the viability, T/C [26] was 57.2% and the viability, T/C [27] was 51%. It also gave a viability, T/C [28] of 43.2%, a viability, T/C [29] of 38.9% and a viability, T/C [30] of 32.3%. It also gave a viability, T/C [31] of 72.4%, a viability, T/C [32] of 68.2% and a viability, T/C [33] of 56.3%. For the same molecule, the viability, T/C [34] was 42.3%, the viability, T/C [35] was 38.1% and the viability, T/C [36] was 31.7%.
